Where “and” joins values, the source holds several entries; their conditions need not be identical. Equal values may be shown once.
Tests used:
CHEAL = experiment: Postemergence herbicidal evaluation; assay type: in vivo
SETVI = experiment: Postemergence herbicidal evaluation; assay type: in vivo
IPOSS = experiment: Postemergence herbicidal evaluation; assay type: in vivo
ORYSAT = experiment: Preemergence herbicidal evaluation; assay type: in vivo, Oryza sativa; design: scale not given here
ZEAMX = experiment: Postemergence herbicidal evaluation; assay type: in vivo
CASOB = experiment: Postemergence herbicidal evaluation; assay type: in vivo
IPOHE [1] = experiment: Postemergence herbicidal evaluation; assay type: in vivo; settings: 0.0625-0.0640 kg/ha
IPOHE [2] = experiment: Preemergence herbicidal evaluation; assay type: in vivo; settings: 0.1250 kg/ha
GLXMAW [3] = experiment: Postemergence herbicidal evaluation; assay type: in vivo
GLXMAW [4] = experiment: Preemergence herbicidal evaluation; assay type: in vivo; design: scale not given here; settings: 0.1250 kg/ha

Row | Structure (SMILES) | herbicidal effect rating (CHEAL; 0.0313-0.0320 kg/ha) | herbicidal effect rating (CHEAL; 0.0625-0.0640 kg/ha) | herbicidal effect rating (CHEAL; 0.1250 kg/ha) | herbicidal effect rating (CHEAL; 0.2500 kg/ha) | herbicidal effect rating (CHEAL; 0.5000 kg/ha) | herbicidal effect rating (SETVI; 0.1250 kg/ha) | herbicidal effect rating (SETVI; 0.2500 kg/ha) | herbicidal effect rating (SETVI; 0.5000 kg/ha) | herbicidal effect rating (IPOSS; 0.0313-0.0320 kg/ha) | herbicidal effect rating (IPOSS; 0.0625-0.0640 kg/ha) | herbicidal effect rating (IPOSS; 0.1250 kg/ha) | herbicidal effect rating (IPOSS; 0.2500 kg/ha) | herbicidal effect rating (IPOSS; 0.5000 kg/ha) | herbicidal effect rating (ORYSAT; 0.0313-0.0320 kg/ha) | herbicidal effect rating (ORYSAT; 0.0620-0.0630 kg/ha) | herbicidal effect rating (ORYSAT; 0.1250 kg/ha) | herbicidal effect rating (ORYSAT; 0.2500 kg/ha) | herbicidal effect rating (ORYSAT; 0.5000 kg/ha) | herbicidal effect rating (ZEAMX; 0.0157-0.0160 kg/ha) | herbicidal effect rating (ZEAMX; 0.0313-0.0320 kg/ha) | other results
1 | Cn1c(C(F)(F)F)cc(=O)n(-c2ccc3snc(-c4ccccc4)c3c2)c1=O [Compound 4, 1-Methyl-3-(3-phenyl-1,2-benzisothiazol-5-yl)-6-(trifluoromethyl)-2,4(1H,3H)-pyrimidinedione] | 9.0 | 9.0 | 9.0 | 9.0 | 9.0 | 9.0 | 9.0 | 9.0 | 7.0 | 9.0 | 9.0 | 9.0 | 9.0 | 7.0 | 7.0 | 7.0 | 7.0 | 7.0 | 2.0 | 2.0 | herbicidal effect rating (CHEAL; 0.0157-0.0160 kg/ha): 9.0; herbicidal effect rating (SETVI; 0.0157-0.0160 kg/ha): 8.0; herbicidal effect rating (SETVI; 0.0313-0.0320 kg/ha): 9.0; herbicidal effect rating (SETVI; 0.0625-0.0640 kg/ha): 9.0; herbicidal effect rating (ZEAMX; 0.0625-0.0640 kg/ha): 3.0; herbicidal effect rating (ZEAMX; 0.1250 kg/ha): 3.0; herbicidal effect rating (ZEAMX; 0.2500 kg/ha): 3.0; herbicidal effect rating (ZEAMX; 0.5000 kg/ha): 3.0; herbicidal effect rating (CASOB; 0.0157-0.0160 kg/ha): 7.0; herbicidal effect rating (CASOB; 0.0313-0.0320 kg/ha): 7.0; herbicidal effect rating (CASOB; 0.0625-0.0640 kg/ha): 9.0; herbicidal effect rating (CASOB; 0.1250 kg/ha): 9.0; herbicidal effect rating (CASOB; 0.2500 kg/ha): 9.0; herbicidal effect rating (CASOB; 0.5000 kg/ha): 9.0
2 | Cc1nsc2ccc(-n3c(=O)cc(C(F)(F)F)n(C)c3=O)cc12 [Compound 6, 1-Methyl-3-(3-methyl-1,2-benzisothiazol-5-yl)-6-(trifluoromethyl)-2,4(1H,3H)-pyrimidinedione] | 6.5 and 5.0 and 9.0 | 9.0 and 7.0 | 9.0 | 9.0 | 9.0 | 9.0 | 9.0 | 9.0 | 9.0 and 8.0 | 9.0 | 9.0 | 9.0 | 9.0 | 4.4 and 7.0 | 7.0 | 8.0 | 8.0 | 9.0 | 3.5 and 4.0 and 2.0 | 3.8 and 4.3 and 3.5 | herbicidal effect rating (IPOHE [1]): 9.0 and 5.0; herbicidal effect rating (IPOHE [2]): 3.0; herbicidal effect rating (IPOSS; 0.0157-0.0160 kg/ha): 7.5 and 7.0; herbicidal effect rating (GLXMAW [3]; 0.0157-0.0160 kg/ha): 5.5 and 3.0; herbicidal effect rating (GLXMAW [3]; 0.0313-0.0320 kg/ha): 5.5 and 3.8 and 7.0; herbicidal effect rating (GLXMAW [3]; 0.0625-0.0640 kg/ha): 6.0 and 4.8 and 7.0; herbicidal effect rating (GLXMAW [3]; 0.1250 kg/ha): 7.0; herbicidal effect rating (GLXMAW [3]; 0.2500 kg/ha): 7.0; herbicidal effect rating (ORYSAT; 0.0156-0.0160 kg/ha): 2.8 and 4.0; herbicidal effect rating (ZEAMX; 0.0625-0.0640 kg/ha): 5.0 and 4.5 and 3.5; herbicidal effect rating (ZEAMX; 0.1250 kg/ha): 3.5; herbicidal effect rating (ZEAMX; 0.2500 kg/ha): 3.5; herbicidal effect rating (ZEAMX; 0.5000 kg/ha): 3.0; herbicidal effect rating (CASOB; 0.0157-0.0160 kg/ha): 0.0; herbicidal effect rating (CASOB; 0.0625-0.0640 kg/ha): 2.5 and 4.0; herbicidal effect rating (CASOB; 0.1250 kg/ha): 7.0; herbicidal effect rating (CASOB; 0.2500 kg/ha): 8.0; herbicidal effect rating (CASOB; 0.5000 kg/ha): 7.0; herbicidal effect rating (GLXMAW [4]): 0.0

— patent US6156700A, “3-(1,2-Benzisothiazol- and isoxazol-5-yl)-2,4(1H,3H)-pyrimidinedione or thione and 3-(1,2-benzisothiazol- and isoxazol-5-yl)-4(3H)-pyrimidinone or thione herbicidal agents” (American Cyanmid Company, priority 1998, dated 2000)
